Data taken from patent US12195512B2, “Affinity ligands for antibody Fc region” (Univerza v Ljubljani, priority 2018, dated 2025).
No end group written: not given here.

Experiments:
human IgG Fc fragment [1] = test: competitive phage FLISA with Staphylococcal protein A; assay type: binding
Protocol: SpA is known to interact specifically with the region at the CH2-CH3 interface of immunoglobulins. Wells of the black Nunc MaxiSorp microtiter plate were either coated with human IgG Fc fragment or left uncoated (controls). Wells were blocked with BSA and contacted with purified fluorescein-labelled phage clone (the labelling procedure was adapted from the instructions of FITC manufacturer, Sigma-Aldrich). Phage was allowed to compete for the Fc binding with SpA in concentrations 1 μM, 100 nM or 10 nM. After 1 h-incubation at room temperature, the content was discarded and wells were washed with 0.1% PBST and finally filled with PBS. Fluorescence intensities in individual wells were measured at 510 nm upon excitation at 485 nm. The experiment was performed in triplicate.

human IgG Fc fragment [2] = test: phage ELISA of phage-displayed peptides on human Fc fragment; assay type: binding; conditions: peptide displayed on phage; absorbance at 450 nm
Text: Three different phage display libraries were subjected to separate panning processes according to the protocol known to one skilled in the art. Various Fc-binding peptides were selected by targeting biotin-conjugated human Fc fragment prepared by random biotinylation of amine residues using EZ-Link™ Sulfo-NHS-SS-Biotin (Thermo Fisher Scientific, Rockford, IL, USA). After three rounds of affinity selection, individual clones were picked for phage Enzyme Linked Immuno-Sorbent Assay (ELISA) in order to evaluate their Fc fragment binding ability.
(§1) Wells of a 96-well microplate (Nunc, Maxisorp) were either coated with human Fc fragment solution or streptavidin as negative control. The wells were blocked with BSA and contacted with amplified population of each individual clone. Bound phages were detected by the addition of horseradish peroxidase (HRP)-conjugated anti-M13 monoclonal antibodies using the chromogenic substrate (3,3′,5,5′-tetramethylbenzidine (TMB)) solution, and absorbance at 450 nm was measured.
The experiment was performed in triplicate.
In order to investigate the contribution of individual amino acid residues of the truncated peptide SEQ ID NO: 2 to the Fc binding, alanine scanning strategy was carried out. […] However, we determined specific positions where alanine substitutions were well tolerated in terms of preserving binding activity. […]

[3] = tested on: IgGs of different species (mouse, donkey, rabbit and sheep); test: assay akin to ELISA with peptide SA-HRP complexes on IgGs of animal species; assay type: binding; conditions: biotinylated synthetic peptide complexed to SA-HRP, sheep IgG
Protocol: (§2) The binding activity of the described biotinylated synthetic peptides to different immunoglobulins was evaluated using an assay akin to ELISA. Wells were coated with the different subclasses of human IgGs or human intravenous immunoglobulins. All the wells were blocked with BSA. A biotinylated synthetic peptide and horseradish peroxidase (HRP)-conjugated streptavidin (SA-HRP) were mixed in advance at molar ratio of 4:1 to formulate tetrameric (peptide)4 SA-HRP complexes and then the mixtures were added to individual wells. After washing, the (peptide)4 SA-HRP complexes were detected with TMB solution.
Additionally, the binding activity of the synthetic peptide SEQ ID NO: 2 to immunoglobulins of different animal species (mouse, rabbit, donkey, and sheep) was evaluated by an assay akin to ELISA essentially as described above. Peptides SEQ ID NO: 184 and SEQ ID NO: 185 represent two control biotin-labelled synthetic peptides with unrelated amino acids sequences.

[4] = tested on: human IgGs of different subclasses (IgG1, IgG2, IgG3 and IgG4); test: phage ELISA on subclasses of native human IgGs; assay type: binding; conditions: peptide displayed on phage as P3 fusion
Protocol: as §1
(§3) The binding activity of phage clone displaying the minimized peptide SEQ ID NO: 2, was further evaluated by phage ELISA (as described above) using different subclasses of native human IgGs and different therapeutic monoclonal antibodies. BSA, avidin and SA were used as targets in negative control wells.

[5] = tested on: human IgG subclasses (IgG1, IgG2, IgG3 and IgG4) and human intravenous immunoglobulins; test: assay akin to ELISA with (peptide)4 SA-HRP complexes on human IgGs; assay type: binding; conditions: for binding of biotinylated synthetic peptides to human IgGs: C-terminal linker SEQ ID NO: 181 biotinylated, tetrameric (peptide)4 SA-HRP complexes; for binding compared with the parental peptide SEQ ID NO: 2: biotinylated synthetic peptides, (peptide)4 SA-HRP complexes, human IgGs
Protocol: as §2

BSA, avidin and SA = test: phage ELISA on negative control targets; assay type: binding; conditions: peptide displayed on phage
Protocol: as §1, §3

human Fc fragment = test: surface plasmon resonance (BIAcore X100), peptide immobilized via streptavidin; assay type: binding; conditions: 25° C; Fc 10-160 nM, single cycle
Protocol: Interaction between the synthetic biotinylated peptide ligand with amino acid sequence identical to SEQ ID NO: 2 and human Fc fragment was analyzed by surface plasmon resonance (SPR) using BIAcoreX100 (BIAcore) at 25° C. Biotinylated synthetic peptide of the present invention was immobilized to the matrix indirectly through streptavidin. Streptavidin (SA) was immobilized to the surface of CM-5 chip through random amine coupling according to the manufacturer's recommendations to achieve a stable response corresponding to approximately 4000 resonance units. The first cell surface was prior activated and deactivated and used as a reference cell during injections. After successful covalent immobilization of SA to dextran matrix via amino groups, a 120 nM solution (pH 5) of biotinylated synthetic peptide SEQ ID NO: 2 was injected over a sensor chip SA to immobilize the peptide onto the chip. The amount of immobilized peptide was adjusted to the stable response corresponding to approximately 200 RU. Subsequently, solutions of human Fc fragment (the analyte) of various concentrations (10 nM, 20 nM, 40 nM, 80 nM, and 160 nM) in running buffer (0.005% P20 in PBS) were injected at a flow rate of 10 μL/min at through flow cells in a manner known as single cycle. Binding reaction between human Fc fragment and the peptide was recorded. […]

[6] = tested on: therapeutic monoclonal antibodies; test: phage ELISA on therapeutic monoclonal antibodies; assay type: binding; conditions: peptide displayed on phage as P3 fusion
Protocol: as §1, §3

[7] = tested on: human IgG Fc fragment and native human IgGs; test: pull-down assay with peptide-coated streptavidin paramagnetic beads; conditions: versus parent peptide SEQ ID NO: 2
Protocol: Selected peptides (SEQ ID NO: 2, SEQ ID NO: 30, and SEQ ID NO: 26) with biotin attached via epsilon-amino group of C-terminal amidated lysine in added linker SEQ ID NO: 181 were synthesized and coupled to streptavidin-coated paramagnetic beads. The same paramagnetic beads without addition of peptide and the same paramagnetic beads coupled with unrelated biotinylated peptide SEQ. ID 185 were used as negative controls. First, the Fc fragment of human antibodies (2 μg) was spiked into PBS and incubated with peptide-coated paramagnetic beads. The beads were then pelleted, washed with 0.1% PBST, and the bound material was eluted with acidic buffer (0.2 M glycine/HCl, pH 2.2). The low pH eluate was immediately neutralized with 1M Tris/HCl, pH 9.1. The eluates obtained from pull-down assay were analyzed by DotBlot assay and Western blotting using polyclonal goat anti-human IgG (H+L) HRP conjugate for detection (results not shown). Equivalent pull-down assay was carried out also from serum free DMEM growth medium spiked with human Fc fragment (2 μg) with peptide SEQ ID NO: 2 (FIG. 11). Additionally, the pull-down assay was also made from intact human sera. The presence of human IgGs in the eluate was confirmed by Coomassie blue staining (FIG. 13) and Western blot analysis (FIG. 12) using HRP-conjugated goat anti-human (H+L) antibodies (BioRad).

**Q.** Which “inhibition of binding of FITC-labelled phage clone SEQ ID NO: 1 to immobilized human IgG Fc” value (human IgG Fc fragment [1]; SpA 1 μM, 100 nM or 10 nM, 1 h room temperature) does the source give for “SpA: Staphylococcal protein A; cell wall constituent protein derived from Staphylococcal aureus [reference compound]” here?
**A.** Its value is “the higher the concentration of SpA added, the more effectively is binding of the phage clone to human IgG Fc fragment inhibited”.

**Q.** What does the source list for AGNGSYWYQVWF [SEQ ID NO: 1]?
**A.** relative binding of phage clones to human IgG Fc (phage ELISA) (human IgG Fc fragment [2]): strongest binding phage clone; binding site on Fc fragment relative to SpA (human IgG Fc fragment [1]; inferred from competition with SpA): at least partially overlap

**Q.** Which results are given for “GSYWYQVWF (H-GSYWYQVWF; not fully specified (C-terminus)) [SEQ ID NO: 2]”?
**A.** binding to IgGs of different animal species [3]: specifically bound; binding to human IgG subclasses (phage ELISA) [4]: strongly bound; binding of biotinylated synthetic peptides to human IgGs [5]: specifically bound to human IgGs; binding to negative controls (phage ELISA) (BSA, avidin and SA): no significant binding; binding of human Fc to immobilized peptide (SPR) (human Fc fragment): exhibited binding to human Fc; dissociation rate (SPR) (human Fc fragment): slow; binding to tested therapeutic monoclonal antibodies (phage ELISA) [6]: strongly bound

**Q.** What does the source list for “GSYWYEVWF (not fully specified (C-terminus)) [SEQ ID NO: 30]”?
**A.** binding of biotinylated synthetic peptides to human IgGs [5]: specifically bound to human IgGs; binding compared with the parental peptide SEQ ID NO: 2 [5]: significantly increased binding

**Q.** For “GSYWYDVWF (not fully specified (C-terminus)) [SEQ ID NO: 26]”, which “binding of biotinylated synthetic peptides to human IgGs” value [5] is on record?
**A.** Its value is “specifically bound to human IgGs”.

**Q.** What about the “binding compared with the parental peptide SEQ ID NO: 2” value [5] of the same substance?
**A.** The value was “significantly increased binding”.

**Q.** And the “trapping efficiency in pull-down assay” value [7]?
**A.** Its value is “significantly higher than the parent peptide SEQ ID NO: 2”.
